From ChEMBL document CHEMBL4251546, “Discovery and hit-to-lead evaluation of piperazine amides as selective, state-dependent NaV1.7 inhibitors” (Medchemcomm, 2017) come the findings set out here.

The term Cmax denotes the peak of the concentration-time curve. What is called Papp is a coefficient for how fast a substance crosses the barrier.

The structures appear in SMILES notation. In brackets after ≈: the same amount, converted by molar mass.

Test system in one data set: not listed separately
Description: Thermodynamic solubility of the compound in PBS at pH 7.4. The conditions noted are these: read-out: Therm_solubility. Type of data set: physicochemical.
As for `N#Cc1cc(F)cc(C(=O)N2CCN([C@@H](C(=O)NCC(F)(F)C3CC3)c3ccccc3)CC2)c1`, the solubility thermodynamic was 405 µM (≈ 191 µg/mL).

In the case of `O=C(NCc1ccccc1)[C@@H](c1ccccc1)N1CCN(Cc2ccccc2)CC1`, the solubility thermodynamic stood at 19 µM (≈ 7.59 µg/mL).

For the compound `COc1cc([C@H](C(=O)NCc2ccccc2)N2CCN(C(=O)c3cc(F)cc(F)c3)CC2)ccc1C#N`, the solubility thermodynamic came to 30 µM (≈ 15.1 µg/mL).

Take `N#Cc1cc(F)cc(C(=O)N2CCN([C@@H](C(=O)NCc3ccccc3)c3ccccc3)CC2)c1`: the solubility thermodynamic was determined as 248 µM (≈ 113 µg/mL).

Turning to `O=C(NCC(F)(F)C1CC1)[C@@H](c1ccccc1)N1CCN(C(=O)c2cc(F)cc(F)c2)CC1`, the solubility thermodynamic is 346 µM (≈ 160 µg/mL).

On to `O=C(NCc1ccccc1)[C@@H](c1ccccc1)N1CC2CC(C1)N2C(=O)c1cc(F)ccc1Cl`, for which the solubility thermodynamic is 83 µM (≈ 39.7 µg/mL).

As for `N#Cc1ccc([C@H](C(=O)NCc2ccccc2)N2CCN(C(=O)c3cc(F)cc(F)c3)CC2)cc1`, the solubility thermodynamic was 74 µM (≈ 35.1 µg/mL).

Turning to `O=C(NCc1ccccc1)[C@@H](c1ccccc1)N1CCN(C(=O)c2cc(F)ccc2Cl)CC1`, the solubility thermodynamic turned out to be 96 µM (≈ 44.7 µg/mL).

Regarding `O=C(Nc1ccc(OCC(F)(F)F)nc1)[C@@H](c1ccccc1)N1CCN(C(=O)c2cc(F)cc(F)c2)CC1`, the solubility thermodynamic stood at 19 µM (≈ 10.2 µg/mL).

Take `CN(Cc1ccccc1)C(=O)[C@@H](c1ccccc1)N1CCN(C(=O)c2cc(F)cc(F)c2)CC1`: the solubility thermodynamic worked out at 220 µM (≈ 102 µg/mL).

In the case of `O=C(NCC1CC1)[C@@H](c1ccccc1)N1CCN(C(=O)c2cc(F)cc(F)c2)CC1`, the solubility thermodynamic was found to be 472 µM (≈ 195 µg/mL).

Take `O=C(NCc1ccc(C(F)(F)F)nc1)[C@@H](c1ccccc1)N1CCN(C(=O)c2cc(F)cc(F)c2)CC1`: the solubility thermodynamic turned out to be 225 µM (≈ 117 µg/mL).

For the compound `N#Cc1cc(OC(F)(F)F)cc(C(=O)N2CCN([C@@H](C(=O)NCc3ccccc3)c3ccccc3)CC2)c1`, the solubility thermodynamic came out at 44 µM (≈ 23 µg/mL).

With `N#Cc1ccc([C@H](C(=O)NCC2CC2)N2CC3CCC(C2)N3C(=O)c2cc(F)cc(F)c2)cc1`, the solubility thermodynamic was determined as 322 µM (≈ 150 µg/mL).

For `O=C(NCc1ccccc1)[C@@H](c1ccccc1)N1CC2CCC(C1)N2C(=O)c1cc(F)ccc1Cl`, the solubility thermodynamic came out at 35 µM (≈ 17.2 µg/mL).

As for `N#Cc1ccc([C@H](C(=O)NCC(F)(F)C2CC2)N2CCN(C(=O)c3cc(F)ccc3Cl)CC2)cc1`, the solubility thermodynamic was determined as 154 µM (≈ 77.8 µg/mL).

As to `O=C(NCc1ccccc1)[C@@H](c1ccccc1)N1CCN(C(=O)c2cc(F)cc(F)c2)CC1`, the solubility thermodynamic amounted to 137 µM (≈ 61.6 µg/mL).

For `N#Cc1ccc([C@H](C(=O)NCC2CC2)N2CC3CCC(C2)N3C(=O)c2cc(F)ccc2F)cc1`, the solubility thermodynamic is 326 µM (≈ 151 µg/mL).

Regarding `O=C(NCc1ccccc1)[C@@H](c1ccccc1)N1CCN(C(=O)c2cc(F)cnc2Cl)CC1`, the solubility thermodynamic came out at 454 µM (≈ 212 µg/mL).

`O=C(Nc1ccc(OCC(F)(F)F)nc1)[C@@H](c1ccccc1)N1CCN(C(=O)c2cc(F)cnc2Cl)CC1`: the solubility thermodynamic is 49 µM (≈ 27 µg/mL).

`N#Cc1ccc([C@H](C(=O)Nc2ccc(OCC(F)(F)F)nc2)N2CCN(C(=O)c3cc(F)cc(F)c3)CC2)cc1`: the solubility thermodynamic came out at 15 µM (≈ 8.39 µg/mL).

Test system in another data set: not listed separately
In words: Cmax in mouse at 100 mg/kg, po. Type of data set: ADME, organism-based. The arrangement: dose 100 mg/kg, route oral. The conditions noted are these: in vivo.
The compound `N#Cc1cc(F)cc(C(=O)N2CCN([C@@H](C(=O)NCC(F)(F)C3CC3)c3ccccc3)CC2)c1` yielded a Cmax of 12.8 µM.

As for `O=C(NCc1ccccc1)[C@@H](c1ccccc1)N1CCN(C(=O)c2cc(F)ccc2Cl)CC1`, the Cmax came out at 4.3 µM.

In turn, `N#Cc1ccc([C@H](C(=O)NCC(F)(F)C2CC2)N2CCN(C(=O)c3cc(F)ccc3Cl)CC2)cc1` displayed a maximum concentration (Cmax) of 29.8 µM.

The test system of another data set is Mus musculus. In words: Unbound Cmax in mouse at 100 mg/kg, po. Type of data set: ADME, organism-based. The conditions noted are these: in vivo.
Compound `N#Cc1cc(F)cc(C(=O)N2CCN([C@@H](C(=O)NCC(F)(F)C3CC3)c3ccccc3)CC2)c1` came in with a fCmax of 1.66 µM.

In turn, `O=C(NCc1ccccc1)[C@@H](c1ccccc1)N1CCN(C(=O)c2cc(F)ccc2Cl)CC1` showed a fCmax of 0.16 µM.

For the compound `N#Cc1ccc([C@H](C(=O)NCC(F)(F)C2CC2)N2CCN(C(=O)c3cc(F)ccc3Cl)CC2)cc1`, the fCmax came out at 3.28 µM.

Another data set relates to MDR1 (P-gp). In words: Apparent permeability across MDCK cells transfected with MDR1. Type of data set: ADME, cell-based, Canis lupus familiaris. The conditions noted are these: dog.
In the case of `O=C(NCc1ccccc1)[C@@H](c1ccccc1)N1CCN(Cc2ccccc2)CC1`, the Papp was 24 ×10⁻⁶ cm/s.

With `O=C(NCc1ccccc1)[C@@H](c1ccccc1)N1CCN(C(=O)c2cc(F)ccc2Cl)CC1`, the apparent permeability coefficient (Papp) turned out to be 36 ×10⁻⁶ cm/s.

Test system in another data set: not listed separately
Description: Plasma concentration in C57Bl/6 mouse histamine dichloride-induced pruritus model at 300 mg/kg, po. The conditions noted are these: in vivo. Type of data set: ADME, organism-based.
Turning to `O=C(NCc1ccccc1)[C@@H](c1ccccc1)N1CCN(C(=O)c2cc(F)ccc2Cl)CC1`, the concentration was determined as 22 µM.
